“Also recorded” adds a separate entry of the source. Like-named read-outs stand apart in the source and are kept apart here. Values belong to the molecule of their own block, whether it stands above or below them. Ends that are not written are not given here. Peptide text beside a SMILES is read from it.
How the values were obtained:
[1] = biological target: T1, core BBSome (BBS1,4,5,8,9,18); assay: Fluorescence polarization binding of fluorescently labeled peptides to the core BBSome; parameters: species or system human; conditions: for Kd: N-terminally fluorescein-labeled peptide 0.1–1 µM titrated with purified core BBSome, fitted to binding curve
T1 construct: His-tag; made in house; host or cells: Hi5 insect cells (baculovirus)
T1 sequence (Q8NFJ9 whole entry, stated change not applied): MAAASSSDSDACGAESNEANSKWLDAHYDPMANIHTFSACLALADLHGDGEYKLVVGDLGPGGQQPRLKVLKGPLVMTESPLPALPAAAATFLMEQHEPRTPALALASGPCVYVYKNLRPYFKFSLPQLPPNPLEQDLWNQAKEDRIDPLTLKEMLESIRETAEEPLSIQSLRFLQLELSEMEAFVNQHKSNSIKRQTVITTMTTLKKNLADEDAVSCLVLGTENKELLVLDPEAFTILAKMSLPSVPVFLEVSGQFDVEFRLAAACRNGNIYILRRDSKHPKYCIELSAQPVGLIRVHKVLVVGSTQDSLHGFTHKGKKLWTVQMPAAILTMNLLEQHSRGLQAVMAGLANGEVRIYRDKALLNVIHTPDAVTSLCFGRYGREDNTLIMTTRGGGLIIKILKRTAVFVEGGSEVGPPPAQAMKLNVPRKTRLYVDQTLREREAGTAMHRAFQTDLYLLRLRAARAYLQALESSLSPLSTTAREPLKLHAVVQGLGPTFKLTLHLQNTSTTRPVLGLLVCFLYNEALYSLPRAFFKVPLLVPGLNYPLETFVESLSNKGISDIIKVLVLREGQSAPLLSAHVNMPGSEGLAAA
T1 sequence (Q96RK4 whole entry, stated change not applied, further chain): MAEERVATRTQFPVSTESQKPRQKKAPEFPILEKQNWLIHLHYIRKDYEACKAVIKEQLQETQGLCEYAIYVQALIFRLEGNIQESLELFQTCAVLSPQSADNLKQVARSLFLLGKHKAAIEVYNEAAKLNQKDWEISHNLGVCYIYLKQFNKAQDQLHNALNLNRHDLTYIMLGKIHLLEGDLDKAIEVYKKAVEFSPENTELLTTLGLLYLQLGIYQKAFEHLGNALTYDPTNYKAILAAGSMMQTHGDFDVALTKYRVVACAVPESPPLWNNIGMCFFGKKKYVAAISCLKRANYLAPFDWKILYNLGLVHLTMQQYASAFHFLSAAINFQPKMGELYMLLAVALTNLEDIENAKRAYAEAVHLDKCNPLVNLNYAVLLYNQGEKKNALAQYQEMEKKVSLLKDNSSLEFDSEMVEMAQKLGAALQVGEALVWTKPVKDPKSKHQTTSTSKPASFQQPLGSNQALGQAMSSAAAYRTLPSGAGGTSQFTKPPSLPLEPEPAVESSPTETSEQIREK
T1 sequence (Q8N3I7 whole entry, stated change not applied, further chain): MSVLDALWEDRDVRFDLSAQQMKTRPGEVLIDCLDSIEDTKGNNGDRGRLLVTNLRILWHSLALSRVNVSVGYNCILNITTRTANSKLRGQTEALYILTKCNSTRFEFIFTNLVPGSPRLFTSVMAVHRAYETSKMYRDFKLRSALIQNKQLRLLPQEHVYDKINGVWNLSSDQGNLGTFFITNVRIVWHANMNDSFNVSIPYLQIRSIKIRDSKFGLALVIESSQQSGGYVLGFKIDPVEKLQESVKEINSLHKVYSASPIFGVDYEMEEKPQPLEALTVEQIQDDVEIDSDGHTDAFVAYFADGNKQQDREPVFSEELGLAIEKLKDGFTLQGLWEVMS
T1 sequence (Q8TAM2 with tags, fused parts or gaps isoform Q8TAM2-4 DEL39-48, further chain): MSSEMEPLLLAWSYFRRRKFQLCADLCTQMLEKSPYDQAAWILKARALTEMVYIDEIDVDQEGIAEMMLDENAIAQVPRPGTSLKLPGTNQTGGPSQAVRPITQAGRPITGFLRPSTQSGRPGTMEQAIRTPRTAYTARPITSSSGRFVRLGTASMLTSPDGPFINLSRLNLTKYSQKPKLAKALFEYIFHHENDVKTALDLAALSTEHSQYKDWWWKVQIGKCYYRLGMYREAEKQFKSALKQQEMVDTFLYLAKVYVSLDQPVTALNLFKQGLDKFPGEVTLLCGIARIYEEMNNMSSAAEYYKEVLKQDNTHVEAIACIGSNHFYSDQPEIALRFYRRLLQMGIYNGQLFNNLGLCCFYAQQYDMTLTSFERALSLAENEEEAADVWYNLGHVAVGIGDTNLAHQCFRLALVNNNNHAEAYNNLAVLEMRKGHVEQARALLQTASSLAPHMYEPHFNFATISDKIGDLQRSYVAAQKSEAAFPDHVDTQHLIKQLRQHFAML
T1 sequence (Q3SYG4 whole entry, stated change not applied, further chain): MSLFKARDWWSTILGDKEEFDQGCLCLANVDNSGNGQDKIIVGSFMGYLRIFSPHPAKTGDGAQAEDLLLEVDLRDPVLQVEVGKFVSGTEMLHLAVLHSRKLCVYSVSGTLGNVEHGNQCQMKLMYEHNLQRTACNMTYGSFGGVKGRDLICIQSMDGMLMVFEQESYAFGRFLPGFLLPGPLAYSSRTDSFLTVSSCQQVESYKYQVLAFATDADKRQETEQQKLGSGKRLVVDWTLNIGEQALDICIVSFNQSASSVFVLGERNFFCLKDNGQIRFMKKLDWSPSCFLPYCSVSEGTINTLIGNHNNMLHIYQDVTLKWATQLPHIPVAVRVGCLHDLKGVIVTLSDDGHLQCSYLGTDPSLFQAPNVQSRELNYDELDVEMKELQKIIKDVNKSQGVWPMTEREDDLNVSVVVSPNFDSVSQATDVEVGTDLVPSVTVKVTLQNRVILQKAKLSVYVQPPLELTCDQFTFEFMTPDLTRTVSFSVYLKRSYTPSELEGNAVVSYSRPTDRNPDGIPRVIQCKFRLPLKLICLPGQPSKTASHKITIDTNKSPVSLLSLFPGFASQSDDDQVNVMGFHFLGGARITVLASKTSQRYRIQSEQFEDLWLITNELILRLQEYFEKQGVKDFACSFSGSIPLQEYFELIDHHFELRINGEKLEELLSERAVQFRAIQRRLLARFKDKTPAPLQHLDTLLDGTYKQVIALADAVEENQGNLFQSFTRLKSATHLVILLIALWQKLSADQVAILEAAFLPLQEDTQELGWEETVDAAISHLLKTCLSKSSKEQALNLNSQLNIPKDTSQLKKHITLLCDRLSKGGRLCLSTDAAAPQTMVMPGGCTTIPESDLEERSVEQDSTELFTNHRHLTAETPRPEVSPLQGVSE
T1 sequence (A8MTZ0 whole entry partner): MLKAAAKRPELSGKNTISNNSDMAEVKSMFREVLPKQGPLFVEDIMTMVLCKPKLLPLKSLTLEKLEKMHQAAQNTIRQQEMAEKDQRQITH
Text: Our microarray data indicated multiple closely spaced binding epitopes in several cases. Where possible, we combined those epitopes into a single fluorescent peptide with up to 37 residues length to more fully reflect the binding site/motif. […] Cargo binding to the core BBSome with fluorescence polarization, measured by using fluorescently labeled peptides and the purified core BBSome. […] All peptides were N-terminally labeled with fluorescein, with an exception of a C-terminally TMR-labeled SSTR3 CT1 peptide (orange squares) that was used as a control to exclude nonspecific binding events due to the used fluorophore. […] (Data points exceeding this mark might indicate secondary binding events at high BBSome concentrations). (C) Fluorescent peptides from the C-terminus of Smo (Smo CT1-4) and a truncated Smoothened construct (Smo […]-[…]) were analyzed as described above. (D) The peptide SSTR3 CT2 that bound with highest affinity to the core BBSome was used as a template for the design and analysis of mutant peptides (SSTR3 CT3-9) with substitutions of one or multiple residues as indicated. Polarization experiments were performed as described above and dissociation constants (KD) are presented as ratios to the KD of the wild type peptide as a bar diagram. (E) Bar diagram of the relative affinities of SmoCT1 and CT3 relative to SmoCT4, as determined in C, and of mutant Smo CT4 peptides with substitutions as indicated. […] Cargo binding to the core BBSome. […] Core BBSome was added at the indicated concentrations and the increase in fluorescence polarization was monitored as a measure for the peptides binding to the protein complex. […] Mutational analysis of the BBSome binding peptides. […] The peptides SSTR3 CT2 (A) and of Smo CT4 (B) that bound with highest affinity to the core BBSome were used as templates for the design of mutant peptides with one or multiple aromatic/basic residue motifs changed to alanines as summarized in Table 1. Core BBSome was added at the indicated concentrations and the increase in fluorescence polarization was monitored as a measure for the peptides binding to the protein complex. […] Fluorescently labeled peptides were purchased from Proteogenix (Proteogenix SAS, France). Fluorescein-labels are located N-terminally to the peptide sequence and TAMRA at the C-terminal side. Fluorescence polarization experiments were performed using a Fluoromax-4 spectrophotometer (HORIBA Jobin Yvon, Germany) or a Safire two multimode plate reader (Tecan, Switzerland). Fluoresceine-labeled samples were measured with excitation/emission wavelengths of λEx = 490 nm and λEm = 520 nm with a bandwidth of 7 nm on the Fluoromax-4. […] Sample volumes were 20 μl in a 1,5 × 1,5 mm cuvette (Hellma Analytics, Germany) for the Fluoromax-4 and 4.5 μl in a 384 well low-binding plate (Corning, Germany). Data analysis was done with the Origin 9.0 program suite (Originlab, Northampton, MA). The polarization curves were fit against the function FI = Fmin […] Fmax corresponding to the fluorescence polarization signal and the signal of unbound and completely saturated fluorescent molecule E with interaction partner L, respectively. The concentrations of molecule E are indicated in the corresponding figure legends, and the calculated dissociation constants KD are listed in Table 1.

[2] = test system: core BBSome; assay: Pulldown of core BBSome with immobilized bait on Streptactin beads; assay type: binding, human; conditions: 7.5 fold molar excess of bait immobilized to Streptactin-coupled Sepharose beads
Text: From previous data, BBS1 seems to be the BBSome subunit most relevant for cargo recognition and Arl6 binding. We first tested the binding of Arl6 to the BBSome core complex. […] To test whether the core BBSome can recognize known BBSome cargo proteins, we generated a truncated (residues R546-L665) version of the Smo receptor, which contains a ciliary targeting motif predicted to interact with the BBSome ([Zhang et al., 2012a]; [Seo et al., 2011]; [Corbit et al., 2005]). In pulldown experiments as described above (Figure 3), the binding was clearly detectable, but considerably weaker than that of Arl6•GppNHp. In fluorescence polarization experiments (see below), we determined the affinity for a fluoresceine-labeled version of this Smo fragment to be 36.1 ± 3.9 µM.
Figure 3. Pulldown of core BBSome with immobilized Arl6 and Smoothened domain R546-L665. Purified core BBSome samples were pulled down by a 7.5 fold molar excess of Arl6•GDP, Arl6•GppNHp or Smo(R546-L665) immobilized to Streptactin-coupled Sepharose beads. […] Smo(R546-L665) bound weaker, but still captured >2% of the BBSome sample. This was approximated by a comparison of the 1:50 diluted Arl6•GppNHp elution with the undiluted Smo(R546-L665) elution in a Flag-blot against Flag-BBS8 from the BBSome core complex.
Pulldown assays were performed using 20 µl Strep-Tactin Superflow high capacity resin (IBA, Germany) per assay equilibrated with pulldown buffer (50 mM Hepes pH 8.0, 150 mM NaCl, 5 mM MgCl2, 5 mM ß-ME and 0.05% DDM). Smo(R546-L665, N-terminal Strep-tag) and Arl6 (residues 17–186, Q73L, C-terminal Strep-tag, with the nucleotide exchanged to either GDP or GppNHp) was immobilized as the bait, and the 6mer BBSome core complex served as the prey (The dual-Strep-tag on BBS18 within the complex was completely removed by Prescission protease cleavage for this experiment). 35 µg of the bait proteins were incubated with the beads in 1 ml pulldown buffer at 4°C for 1 hr, and the unbound protein was washed away with 3 × 1 ml pulldown buffer. […]

- Kd ([1]; read-out: KD (converted)): 44.2 ± 10.9 µM
Molecule: CC(C)C[C@H](NC(=O)[C@H](C)NC(=O)[C@H](CCCNC(=N)N)NC(=O)[C@H](CCCCN)NC(=O)[C@H](Cc1ccccc1)NC(=O)[C@H](CC(=O)O)NC(=O)[C@@H](N)CCCNC(=N)N)C(=O)NCC(=O)N[C@@H](CCCNC(=N)N)C(=O)N[C@@H](Cc1ccccc1)C(=O)N[C@@H](CC(C)C)C(=O)N1CCC[C@H]1C(=O)N[C@@H](CS)C(=O)N1CCC[C@H]1C(=O)N[C@@H](CCCNC(=N)N)C(=O)N[C@@H](CS)C(=O)N1CCC[C@H]1C(=O)N[C@@H](CCCNC(=N)N)C(=O)N[C@@H](CCC(=O)O)C(=O)N[C@@H](CCCNC(=N)N)C(=O)O [5HT6 CT] (H-RDFKRALGRFLPCPRCPRER-OH)

- Kd ([1]; read-out: KD (converted)): 6.3 ± 1.5 µM
Molecule: FIFRVARVKARKVHCG [GPR161 3ICL]

- Kd ([1]; read-out: KD (converted)): 11 µM
Molecule: GFLSAAAAQGAARVLLRPSRRVRS [SSTR3 CT8]

- Kd ([1]; read-out: KD (converted)): 1 µM
Molecule: GFLSAAAAQGFRRVLLRPSRRVRS [SSTR3 CT7]

- Kd ([1]; read-out: KD (converted)): 4.5 µM
Molecule: GFLSAAFKQGAARVLLRPSRRVRS [SSTR3 CT6]

- Kd ([1]; read-out: KD (converted)): 1.1 µM
Molecule: GFLSAAFKQGFRRVLLRPSRRVRS [SSTR3 CT3]

- Kd ([1]; read-out: KD (converted)): 0.4 µM
Molecule: GFLSYRAAQGFRRVLLRPSRRVRS [SSTR3 CT4]

- Kd ([1]; read-out: KD (converted)): 1.5 µM
Molecule: GFLSYRFKQGAARVLLRPSRRVRS [SSTR3 CT5]

- Kd ([1]; read-out: KD (converted)): 4.7 µM
Molecule: GFLSYRFKQGFRRVLLRPSEEVES [SSTR3 CT9]

- Kd ([1]; read-out: KD (converted)): 0.11 µM
Molecule: GFLSYRFKQGFRRVLLRPSRRVRS [SSTR3 CT2]

- Kd ([1]; read-out: KD (converted)): > 100 µM
Molecule: GRGSAAARSRYTCRLQQHDRGRRQ [NMU 3ICL2, N-terminally fluorescein-labeled peptide from the third intracellular loop of NMU-R1]

- binding to core BBSome (result in words) [1]: only weak interaction
- Kd ([1]; read-out: KD (converted)): > 100 µM
Molecule: KRIKKSKMIAKAFSK [Smo CT2]

- Kd ([1]; read-out: KD (converted)): 6.8 µM
Molecule: KRLGRKKKRRKRKKE [Smo CT8]

- Kd ([1]; read-out: KD (converted)): 18.1 ± 1.6 µM
Molecule: LLIGLRLRRERLLLMQEAKGRG [NMU 3ICL1]

- Kd ([1]; read-out: KD (converted)): 67.4 ± 7.3 µM
Molecule: NKTVRKELLGMCFGDRYYREPFVQRQR [GPR161 CT1]

- Kd ([1]; read-out: KD (converted)): 22.1 ± 1.4 µM
Molecule: RFKQGFRRVLLRPSR [SSTR3 CT1]

- Kd ([1]; read-out: KD (converted)): 68.8 ± 11.3 µM
Molecule: RILQRMTSSVAPASQRSIRLRTKRVTRT [MCH 3ICL]

Molecule: TLLIAARTAARLTGQSDDE [Smo CT7]
- Kd [1]: 14.3 µM

- Kd ([1]; read-out: KD (converted)): 9.7 µM
Molecule: TLLIAARTWCRLTGQSDDE [Smo CT5]

- Kd ([1]; read-out: KD (converted)): 12.5 µM
Molecule: TLLIWRRTAARLTGQSDDE [Smo CT6]

- Kd ([1]; read-out: KD (converted)): 1.8 ± 0.5 µM
Molecule: TLLIWRRTWCRLTGQ [Smo CT1]

- Kd ([1]; read-out: KD (converted)): 1.1 µM
Molecule: TLLIWRRTWCRLTGQSDDE [Smo CT4]

- Kd ([1]; read-out: KD (converted)): 1.4 µM
Molecule: TLLIWRRTWCRLTGQSDDEPKRIKKSKMIAKAFSKRH [Smo CT3]

- Kd ([1]; read-out: KD (converted)): 12.8 ± 1.07 µM
Molecule: VKVRSAGRRVWAPSCQRRRRSERRVTRM [SSTR3 3ICL]

- Kd ([1]; read-out: KD (converted)): > 100 µM
Molecule: VTARTVPGGGFGGRRGSRTLVS [GPR161 CT2, N-terminally fluorescein-labeled peptide from the C-terminal region of GPR161]

B1: Arl6•GppNHp: Arl6 (residues 17–186, Q73L, C-terminal Strep-tag) with the nucleotide exchanged to GppNHp (protein)
chain: EVHVLCLGLDNSGKTTIINKLKPSNAQSQNILPTIGFSIEKFKSSSLSFTVFDMSGLGRYRNLWEHYYKEGQAIIFVIDSSDRLRMVVAKEELDTLLNHPDIKHRRIPILFFANKMDLRDAVTSVKVSQLLCLENIKDKPWHICASDAIKGEGLQEGVDWLQDQIQTVKT
modifications: left off: Strep-tag, C-terminal, kept
notes: Arl6 (residues 17–186, Q73L, C-terminal Strep-tag) with the nucleotide exchanged to GppNHp
- pulldown of core BBSome (result in words) [2]: precipitated the major part of the BBSome
- pulldown of core BBSome (result in words) ([2]; listed as Arl6•GppNHP): captured most of the BBSome sample

B2: Arl6•GDP: Arl6 (residues 17–186, Q73L, C-terminal Strep-tag) with the nucleotide exchanged to GDP (protein)
chain: B1 chain
modifications: left off: Strep-tag, C-terminal, kept
notes: Arl6 (residues 17–186, Q73L, C-terminal Strep-tag) with the nucleotide exchanged to GDP
- pulldown of core BBSome (result in words) [2]: no detectable affinity; also recorded: no interaction
